This assay concerns the target His-tagged N-terminal ATP binding domain (amino acid residues 9-236) of HSP90α (Homo sapiens, UniProt P07900). The experiment in a line: HSP90 inhibitor binding potency: TRF competition binding assay. The following applies: Table II; read-out: Hsp90 IC50 Range. The method in brief:
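Competition against biotinylated radicicol for binding to the His-tagged 9-236 ATP domain of HSP90α: 2 h, room temperature, HEPES/MgCl2/KCl/BSA buffer. Streptavidin capture, then europium-labeled anti-His antibody and enhancement solution; europium counts give IC50.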
A word on the IC50: it is the concentration that inhibits the measured activity by half. On to `COc1nc(-c2cc(F)ccc2[C@@H]2CC(=O)c3c(C)nc(N)nc3C2)ncc1C` [Compound 275, (S)-2-amino-7-[4-fluoro-2-(4-methoxy-5-methyl-pyrimidin-2-yl)-phenyl]-4-methyl-7,8-dihydro-6H-quinazolin-5-one], for which the IC50 is < 1000 nM. Under `COc1cnc(-c2cc(F)ccc2C2CC(=O)c3c(C)nc(N)nc3C2)nc1OC` (stereo not shown) [Compound 276, 2-amino-7-[2-(4,5-dimethoxy-pyrimidin-2-yl)-4-fluoro-phenyl]-4-methyl-7,8-dihydro-6H-quinazolin-5-one] stands < 1000 nM.

With `Nc1ncc2c(n1)CC(c1ccc(F)cc1-c1cccnc1F)CC2=O` (stereo not shown) [Compound 277, 2-amino-7-[4-fluoro-2-(2-fluoro-pyridin-3-yl)-phenyl]-7,8-dihydro-6H-quinazolin-5-one], the IC50 is < 1000 nM. Take `COc1ncncc1-c1cc(F)ccc1C1CC(=O)c2c(C)nc(N)nc2C1` (stereo not shown) [Compound 278, 2-amino-7-[4-fluoro-2-(4-methoxy-pyrimidin-5-yl)-phenyl]-4-methyl-7,8-dihydro-6H-quinazolin-5-one]: the IC50 is < 1000 nM. As for `Cc1nc(N)nc2c1C(=O)CC(c1ccc(F)cc1-c1cccc(C(F)(F)F)n1)C2` (stereo not shown) [Compound 279, 2-amino-7-[4-fluoro-2-(6-trifluoromethyl-pyridin-2-yl)-phenyl]-4-methyl-7,8-dihydro-6H-quinazolin-5-one], the IC50 was < 1000 nM. Under `Cc1nc(N)nc2c1C(=O)CC(c1ccc(F)cc1-c1nccnc1NCCO)C2` (stereo not shown) [Compound 280, 2-amino-7-{4-fluoro-2-[3-(2-hydroxy-ethylamino)-pyrazin-2-yl]-phenyl}-4-methyl-7,8-dihydro-6H-quinazolin-5-one] stands 1000 to 10000 nM; under `COc1nccnc1-c1cc(F)ccc1C1CC(=O)c2c(C)nc(N)nc2C1` (stereo not shown) [Compound 281, 2-amino-7-[4-fluoro-2-(3-methoxy-pyrazin-2-yl)-phenyl]-4-methyl-7,8-dihydro-6H-quinazolin-5-one], < 1000 nM.

For `CCOc1ncncc1-c1cc(F)ccc1C1CC(=O)c2c(C)nc(N)nc2C1` (stereo not shown) [Compound 282, 2-amino-7-[2-(4-ethoxy-pyrimidin-5-yl)-4-fluoro-phenyl]-4-methyl-7,8-dihydro-6H-quinazolin-5-one], the 50% inhibitory concentration (IC50) is < 1000 nM. For the compound `COc1cccc(-c2ccc(F)cc2C2CC(=O)c3c(C)nc(N)nc3C2)n1` (stereo not shown) [Compound 283, 2-amino-7-[5-fluoro-2-(6-methoxy-pyridin-2-yl)-phenyl]-4-methyl-7,8-dihydro-6H-quinazolin-5-one], the IC50 was < 1000 nM. In the case of `Cc1nc(N)nc2c1C(=O)CC(c1cc(F)ccc1-c1cncnc1)C2` (stereo not shown) [Compound 284, 2-amino-7-(5-fluoro-2-pyrimidin-5-yl-phenyl)-4-methyl-7,8-dihydro-6H-quinazolin-5-one] it was > 10000 nM; in that of `COc1ncccc1-c1ccc(F)cc1C1CC(=O)c2c(C)nc(N)nc2C1` (stereo not shown) [Compound 285, 2-amino-7-[5-fluoro-2-(2-methoxy-pyridin-3-yl)-phenyl]-4-methyl-7,8-dihydro-6H-quinazolin-5-one], < 1000 nM; in that of `COc1cncc(-c2ccc(F)cc2C2CC(=O)c3c(C)nc(N)nc3C2)n1` (stereo not shown) [Compound 286, 2-amino-7-[5-fluoro-2-(6-methoxy-pyrazin-2-yl)-phenyl]-4-methyl-7,8-dihydro-6H-quinazolin-5-one], 1000 to 10000 nM. For `COc1nc(-c2cc(F)ccc2[C@@H]2CC(=O)c3c(C)nc(N)nc3C2)cnc1N` [Compound 287, (S)-2-amino-7-[2-(5-amino-6-methoxy-pyrazin-2-yl)-4-fluoro-phenyl]-4-methyl-7,8-dihydro-6H-quinazolin-5-one], the IC50 is < 1000 nM.

Regarding `COc1cnc(-c2cc(F)ccc2[C@@H]2CC(=O)c3c(C)nc(N)nc3C2)nc1OC` [Compound 288, (S)-2-amino-7-[2-(4,5-dimethoxy-pyrimidin-2-yl)-4-fluoro-phenyl]-4-methyl-7,8-dihydro-6H-quinazolin-5-one], the IC50 is < 1000 nM. In the case of `COc1ccc(F)c(-c2scnc2C2CC(=O)c3c(C)nc(N)nc3C2)c1` (stereo not shown) [Compound 289, 2-amino-7-[5-(2-fluoro-5-methoxy-phenyl)-thiazol-4-yl]-4-methyl-7,8-dihydro-6H-quinazolin-5-one] it was 1000 to 10000 nM; in that of `COc1ccccc1Oc1cc(F)ccc1C1CC(=O)c2c(C)nc(N)nc2C1` (stereo not shown) [Compound 290, 2-amino-7-[4-fluoro-2-(2-methoxy-phenoxy)-phenyl]-4-methyl-7,8-dihydro-6H-quinazolin-5-one], 1000 to 10000 nM.

In the case of `COc1cccc(-c2scnc2C2CC(=O)c3c(C)nc(N)nc3C2)n1` (stereo not shown) [Compound 291, 2-amino-7-[5-(6-methoxy-pyridin-2-yl)-thiazol-4-yl]-4-methyl-7,8-dihydro-6H-quinazolin-5-one], the IC50 is < 1000 nM. Consider `Cc1nc(N)nc2c1C(=O)CC(c1ncsc1-c1cc(F)ccc1F)C2` (stereo not shown) [Compound 292, 2-amino-7-[5-(2,5-difluoro-phenyl)-thiazol-4-yl]-4-methyl-7,8-dihydro-6H-quinazolin-5-one], for which the IC50 is < 1000 nM. In the case of `Cc1ccc(F)c(-c2scnc2C2CC(=O)c3c(C)nc(N)nc3C2)c1` (stereo not shown) [Compound 293, 2-amino-7-[5-(2-fluoro-5-methyl-phenyl)-thiazol-4-yl]-4-methyl-7,8-dihydro-6H-quinazolin-5-one] it was < 1000 nM; in that of `Cc1nc(N)nc2c1C(=O)CC(c1ncsc1-c1cccc(F)n1)C2` (stereo not shown) [Compound 294, 2-amino-7-[5-(6-fluoro-pyridin-2-yl)-thiazol-4-yl]-4-methyl-7,8-dihydro-6H-quinazolin-5-one], < 1000 nM; in that of `CNc1cccc(-c2cc(F)ccc2C2CC(=O)c3c(C)nc(N)nc3C2)n1` (stereo not shown) [Compound 295, 2-amino-7-[4-fluoro-2-(6-methylamino-pyridin-2-yl)-phenyl]-4-methyl-7,8-dihydro-6H-quinazolin-5-one], 1000 to 10000 nM. As for `CNc1cncc(-c2cc(F)ccc2C2CC(=O)c3c(C)nc(N)nc3C2)n1` (stereo not shown) [Compound 296, 2-amino-7-[4-fluoro-2-(6-methylamino-pyrazin-2-yl)-phenyl]-4-methyl-7,8-dihydro-6H-quinazolin-5-one], the IC50 was < 1000 nM. In the case of `COc1cccc(-c2scnc2[C@H]2CC(=O)c3c(C)nc(N)nc3C2)n1` [Compound 297, (R)-2-amino-7-[5-(6-methoxy-pyridin-2-yl)-thiazol-4-yl]-4-methyl-7,8-dihydro-6H-quinazolin-5-one] it was 1000 to 10000 nM; in that of `COc1cccc(-c2scnc2[C@@H]2CC(=O)c3c(C)nc(N)nc3C2)n1` [Compound 298, (S)-2-amino-7-[5-(6-methoxy-pyridin-2-yl)-thiazol-4-yl]-4-methyl-7,8-dihydro-6H-quinazolin-5-one], < 1000 nM; in that of `COc1nc(-c2cc(F)ccc2[C@H]2CC(=O)c3c(C)nc(N)nc3C2)ncc1Cl` [Compound 299, (R)-2-amino-7-[2-(5-chloro-4-methoxy-pyrimidin-2-yl)-4-fluoro-phenyl]-4-methyl-7,8-dihydro-6H-quinazolin-5-one], < 1000 nM.

On to `COc1nc(-c2cc(F)ccc2[C@@H]2CC(=O)c3c(C)nc(N)nc3C2)ncc1Cl` [Compound 300, (S)-2-amino-7-[2-(5-chloro-4-methoxy-pyrimidin-2-yl)-4-fluoro-phenyl]-4-methyl-7,8-dihydro-6H-quinazolin-5-one], for which the IC50 is < 1000 nM. As for `COc1ccccc1-c1scnc1C1CC(=O)c2c(C)nc(N)nc2C1` (stereo not shown) [Compound 301, 2-amino-7-[5-(2-methoxy-phenyl)-thiazol-4-yl]-4-methyl-7,8-dihydro-6H-quinazolin-5-one], the IC50 is < 1000 nM. For `Cc1nc(N)nc2c1C(=O)CC(c1ncsc1-c1ccccc1F)C2` (stereo not shown) [Compound 302, 2-amino-7-[5-(2-fluoro-phenyl)-thiazol-4-yl]-4-methyl-7,8-dihydro-6H-quinazolin-5-one], the half-maximal inhibitory concentration (IC50) is < 1000 nM. In the case of `COc1cncc(-c2scnc2C2CC(=O)c3c(C)nc(N)nc3C2)n1` (stereo not shown) [Compound 303, 2-amino-7-[5-(6-methoxy-pyrazin-2-yl)-thiazol-4-yl]-4-methyl-7,8-dihydro-6H-quinazolin-5-one] it was < 1000 nM; in that of `COc1ccc(Cc2nc(N)nc3c2C(=O)CC(c2ccccc2)C3)cc1` (stereo not shown) [Compound 304, 2-amino-4-(4-methoxy-benzyl)-7-phenyl-7,8-dihydro-6H-quinazolin-5-one], 1000 to 10000 nM; in that of `Nc1nc(CCc2ccccc2)c2c(n1)CC(c1ccccc1)CC2=O` (stereo not shown) [Compound 305, 2-amino-4-phenethyl-7-phenyl-7,8-dihydro-6H-quinazolin-5-one], > 10000 nM. In the case of `COc1cccc(Cc2nc(N)nc3c2C(=O)CC(c2ccccc2)C3)c1` (stereo not shown) [Compound 306, 2-amino-4-(3-methoxy-benzyl)-7-phenyl-7,8-dihydro-6H-quinazolin-5-one] it was 1000 to 10000 nM; in that of `Nc1nc(Cc2ccc(F)cc2)c2c(n1)CC(c1ccccc1)CC2=O` (stereo not shown) [Compound 307, 2-amino-4-(4-fluoro-benzyl)-7-phenyl-7,8-dihydro-6H-quinazolin-5-one], 1000 to 10000 nM; in that of `Nc1nc(Cc2cccc([N+](=O)[O-])c2)c2c(n1)CC(c1ccccc1)CC2=O` (stereo not shown) [Compound 308, 2-amino-4-(3-nitro-benzyl)-7-phenyl-7,8-dihydro-6H-quinazolin-5-one], > 10000 nM.

In the case of `Nc1cccc(Cc2nc(N)nc3c2C(=O)CC(c2ccccc2)C3)c1` (stereo not shown) [Compound 309, 2-amino-4-(3-amino-benzyl)-7-phenyl-7,8-dihydro-6H-quinazolin-5-one], the IC50 was > 10000 nM. Under `CC(=O)Nc1cccc(Cc2nc(N)nc3c2C(=O)CC(c2ccccc2)C3)c1` (stereo not shown) [Compound 310, N-[3-(2-amino-5-oxo-7-phenyl-5,6,7,8-tetrahydro-quinazolin-4-ylmethyl)-phenyl]-acetamide] stands > 10000 nM; under `Nc1nc(O)c2c(n1)CC(c1ccccc1)CC2=O` (stereo not shown) [Compound 311, 2-amino-4-hydroxy-7-phenyl-7,8-dihydro-6H-quinazolin-5-one], > 10000 nM.

(Values after patent publication US20070027150A1 (priority 2005, published 2007).)
